Measured values reported in patent publication US20070093520A1, “Method of treatment of diarrhea-predominant irritable bowel syndrome in a subject” (priority 2005, published 2007).

Tested on: diarrhea-predominant IBS subjects
Test: 3007 Study: open-label 52-week safety study, adverse events and withdrawals
Conditions: Study 3007; for Number of subjects who died / Primary reason for withdrawal: Adverse event and lack of efficacy / Primary reason for withdrawal: Baseline complaint/adverse event / Primary reason for withdrawal: Lack of efficacy: all enrolled

SMILES: Cc1nccn1C[C@H]1CCc2c(c3cccc4c3n2CCC4)C1=O [cilansetron, (R)-(−)-4,5,6,8,9,10-hexahydro-10-[(2-methyl-1H-imidazol-1-yl)methyl]-11H-pyrido-[3,2,1-jk]-carbazol-11-one]
- SAE: Hepatitis NOS (C/C): 1 (<1%) n (%)
- SAE: Hepatobiliary Disorders (C/C): 2 (<1%) n (%)
- SAE: Immune System Disorders (C/C): 0 n (%)
- SAE: Infections and Infestations (C/C): 1 (<1%) n (%)
- SAE: Injury, Poisoning and Procedural Complications (C/C): 2 (<1%) n (%)
- SAE: Irritable Bowel Syndrome Aggravated (C/C): 1 (<1%) n (%)
- SAE: Leiomyoma NOS (C/C): 1 (<1%) n (%)
- SAE: Loss of Consciousness (C/C): 1 (<1%) n (%)
- SAE: Myocardial Infarction (C/C): 1 (<1%) n (%)
- SAE: Neoplasms Benign, Malignant and Unspecified (Incl Cysts and Polyps) (C/C): 3 (1%) n (%)
- SAE: Nervous System Disorders (C/C): 2 (<1%) n (%)
- SAE: Non-Accidental Overdose (C/C): 1 (<1%) n (%)
- SAE: Ovarian Cancer NOS* (C/C): 1 (<1%) n (%)
- SAE: Ovarian Cystadenofibroma* (C/C): 0 n (%)
- SAE: Pregnancy NOS* (C/C): 1 (<1%) n (%)
- SAE: Pregnancy, Puerperium and Perinatal Conditions (C/C): 1 (<1%) n (%)
- SAE: Psychiatric Disorders (C/C): 0 n (%)
- SAE: Psychotic Disorder NOS (C/C): 0 n (%)
- SAE: Renal and Urinary Disorders (C/C): 1 (<1%) n (%)
- SAE: Reproductive System and Breast Disorders (C/C): 2 (<1%) n (%)
- SAE: Respiratory, Thoracic and Mediastinal Disorders (C/C): 0 n (%)
- SAE: Sinusitis Acute NOS (C/C): 0 n (%)
- SAE: Status Epilepticus (C/C): 1 (<1%) n (%)
- SAE: Suicidal Ideation (C/C): 0 n (%)
- SAE: Supraventricular Tachycardia (C/C): 0 n (%)
- SAE: Urinary Tract Infection NOS (C/C): 0 n (%)
- SAE: Uterine Polyp NOS* (C/C): 1 (<1%) n (%)
- SAE: Vaginal Cyst* (C/C): 1 (<1%) n (%)
- TEAEs that led to permanent discontinuation of study medication (C/C): 13%
- Total Number of Subjects with at Least One Serious Adverse Event (C/C): 19 (7%) n (%)
- subjects with at least one TEAE (C/C): 86%
- subjects with at least one treatment-emergent SAE (C/C): 7%
- withdrawal for AE (C/C): 13%
- withdrawal for lack of efficacy (C/C): 17%
- Number of deaths (C/C (N = 257)): 0 n (%)
- Number of subjects who permanently discontinued study medication due to a TEAE (as reported on the AE CRF) (C/C (N = 257)): 33 (13) n (%)
- Number of subjects with at least one AE of special interest (C/C (N = 257)): 186 (72) n (%)
- Number of subjects with at least one SAE (C/C (N = 257)): 19 (7) n (%)
- Number of subjects with at least one TEAE (C/C (N = 257)): 220 (86) n (%)
- Number of subjects with at least one TEAE leading to dose reduction (C/C (N = 257)): 7 (3) n (%)
- Number of subjects with at least one related TEAE (C/C (N = 257)): 151 (59) n (%)
- Number of subjects with at least one severe TEAE (C/C (N = 257)): 50 (19) n (%)
- Number of subjects who died (C/C): 0 n (%)
- Primary reason for withdrawal: Adverse event and lack of efficacy (C/C): 23 (9) n (%)
- Primary reason for withdrawal: Baseline complaint/adverse event (C/C): 10 (4) n (%)
- Primary reason for withdrawal: Lack of efficacy (C/C): 20 (8) n (%)
- Number of deaths (Overall (N = 536)): 0 n (%)
- Number of subjects who permanently discontinued study medication due to a TEAE (as reported on the AE CRF) (Overall (N = 536)): 83 (15) n (%)
- Number of subjects with at least one AE of special interest (Overall (N = 536)): 371 (69) n (%)
- Number of subjects with at least one SAE (Overall (N = 536)): 29 (5) n (%)
- Number of subjects with at least one TEAE (Overall (N = 536)): 437 (82) n (%)
- Number of subjects with at least one TEAE leading to dose reduction (Overall (N = 536)): 11 (2) n (%)
- Number of subjects with at least one related TEAE (Overall (N = 536)): 301 (56) n (%)
- Number of subjects with at least one severe TEAE (Overall (N = 536)): 94 (18) n (%)
- Number of subjects who died (Overall): 0 n (%)
- Primary reason for withdrawal: Adverse event and lack of efficacy (Overall): 57 (10) n (%)
- Primary reason for withdrawal: Baseline complaint/adverse event (Overall): 24 (4) n (%)
- Primary reason for withdrawal: Lack of efficacy (Overall): 45 (8) n (%)
- SAE: Abdominal Pain Upper (P/C): 0 n (%)
- SAE: Adenomyosis* (P/C): 0 n (%)
- SAE: Angina Pectoris (P/C): 0 n (%)
- SAE: Appendicitis (P/C): 0 n (%)
- SAE: Asthma NOS (P/C): 1 (<1%) n (%)
- SAE: Benign Ovarian Tumour* (P/C): 1 (<1%) n (%)
- SAE: Bladder Prolapse (P/C): 1 (<1%) n (%)
- SAE: Bone Neoplasm Malignant (P/C): 0 n (%)
- SAE: Breast Cancer NOS* (P/C): 2 (1%) n (%)
- SAE: Bronchopneumonia NOS (P/C): 1 (<1%) n (%)
- SAE: Calculus Ureteric (P/C): 0 n (%)
- SAE: Cardiac Disorders (P/C): 1 (<1%) n (%)
- SAE: Chest Pain (P/C): 1 (<1%) n (%)
- SAE: Cholelithiasis (P/C): 0 n (%)
- SAE: Colitis Ischaemic (P/C): 1 (<1%) n (%)
- SAE: Depression (P/C): 1 (<1%) n (%)
- SAE: Endometriosis* (P/C): 0 n (%)
- SAE: Fibroma NOS (P/C): 1 (<1%) n (%)
- SAE: Food Allergy (P/C): 1 (<1%) n (%)
- SAE: Gastritis NOS (P/C): 0 n (%)
- SAE: Gastroenteritis NOS (P/C): 0 n (%)
- SAE: Gastrointestinal Disorders (P/C): 1 (<1%) n (%)
- SAE: General Disorders and Administration Site Conditions (P/C): 1 (<1%) n (%)
- SAE: Hallucination NOS (P/C): 1 (<1%) n (%)
- SAE: Hallucination, Auditory (P/C): 1 (<1%) n (%)
- SAE: Heat Exhaustion (P/C): 0 n (%)
- SAE: Hepatitis NOS (P/C): 0 n (%)
